Reference: PubChem BioAssay AID330 (DTP/NCI, 2004)
Several values for one entry are separate records, joined by “and”; a condition that tells them apart may be missing. Identical values can stand only once. Toxic doses and inconclusive results are not listed. The calls were made as follows: active = survival T/C of 150% or more; inactive = T/C below 125% in these data.

Tested on: P388 leukemia ip, CD2F1 mice, survival T/C
Assay: NCI In Vivo Anticancer Drug Screen. Data for tumor model P388 Leukemia (intraperitoneal) in CD2F1 (CDF1) mice
Conditions: endpoint: median survival time, higher = longer survival
Procedure, shortened: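 Mice carrying the transplanted tumor received test compound or vehicle. Survival was recorded in each group, and the value is the treated-group measurement divided by that of the vehicle-treated control group.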

[1] = dose: 60.0 mg/kg/injection, schedule: Q01DX005 (ip), vehicle: saline with Tween-80
[2] = dose: 120.0 mg/kg/injection, schedule: Q01DX005 (ip), vehicle: saline with Tween-80
[3] = dose: 240.0 mg/kg/injection, schedule: Q01DX005 (ip), vehicle: saline with Tween-80
[4] = dose: 50.0 mg/kg/injection, schedule: Q01DX005 (ip), vehicle: Klucel (hydroxypropylcellulose) (HPC)
[5] = dose: 100.0 mg/kg/injection, schedule: Q01DX005 (ip), vehicle: Klucel (hydroxypropylcellulose) (HPC)
[6] = dose: 200.0 mg/kg/injection, schedule: Q01DX005 (ip), vehicle: Klucel (hydroxypropylcellulose) (HPC)

Measured: T/C

CCCCN(CCCC)CC(O)c1c(OC)c2cc(Cl)ccc2c2ccc(Cl)cc12 (stereo not given)
inactive: dose: 25.0 mg/kg/injection, schedule: Q01DX009 (ip), vehicle: saline with Tween-80 94 % of control | dose: 50.0 mg/kg/injection, schedule: Q01DX009 (ip), vehicle: saline with Tween-80 100 % of control

BrCCCC1OCCO1
inactive: [1] 100 % of control | [2] 100 % of control | [3] 104 % of control

C[C@]12CC[C@@H]3c4ccc(O)c(N)c4CC[C@H]3[C@@H]1CC[C@@H]2O
inactive: dose: 12.5 mg/kg/injection, schedule: Q01DX005 (ip), vehicle: saline with Tween-80 93 % of control | dose: 25.0 mg/kg/injection, schedule: Q01DX005 (ip), vehicle: saline with Tween-80 88 % of control | dose: 50.0 mg/kg/injection, schedule: Q01DX005 (ip), vehicle: saline with Tween-80 94 % of control | dose: 100.0 mg/kg/injection, schedule: Q01DX005 (ip), vehicle: saline with Tween-80 90 % of control | dose: 200.0 mg/kg/injection, schedule: Q01DX005 (ip), vehicle: saline with Tween-80 90 % of control

O=C(Nc1ccc(C(=O)O)cc1)Nc1ccc(C(=O)O)cc1
inactive: dose: 100.0 mg/kg/injection, schedule: Q04DX002 (ip), vehicle: Klucel (hydroxypropylcellulose) (HPC) 99 % of control | dose: 200.0 mg/kg/injection, schedule: Q04DX002 (ip), vehicle: Klucel (hydroxypropylcellulose) (HPC) 109 % of control

CCCCCCCCOP(=O)(CC(CP(=O)(O)OC)P(=O)(O)OC)OCCCCCCCC (stereo not given)
inactive: [4] 91 % of control | [5] 94 % of control | [6] 93 % of control

Cc1nc(Nc2ccc(F)cc2)c2c(C)c(CC(C)C)[nH]c2n1
inactive: [4] 87 % of control | [5] 91 % of control | [6] 100 % of control

COC(=O)/C=C1\SC(OC)(N(C)c2ccccc2)N(C)C1=O (stereo not given)
inactive: [1] 90 % of control | [2] 98 % of control | [3] 91 % of control

C=CCC1=C(CC)C(=O)c2ccccc2C1=O
inactive: [4] 100 % of control | [5] 100 % of control | [6] 111 % of control

Cn1c(=O)[nH]c(Cl)c(NC=O)c1=O
inactive: dose: 25.0 mg/kg/injection, schedule: Q01DX005 (ip), vehicle: water 98 % of control | dose: 50.0 mg/kg/injection, schedule: Q01DX005 (ip), vehicle: water 103 % of control | dose: 100.0 mg/kg/injection, schedule: Q01DX005 (ip), vehicle: water 98 % of control | dose: 200.0 mg/kg/injection, schedule: Q01DX005 (ip), vehicle: water 109 % of control

NC(=O)N(CCO)/N=C/C=C/c1ccc([N+](=O)[O-])o1
inactive: [4] 106 % of control | [5] 115 % of control | [6] 108 % of control

COC1OC2COC(c3ccccc3)OC2C2OC(c3ccccc3)OC12 (stereo not given)
inactive: dose: 1.56 mg/kg/injection, schedule: Q01DX009 (ip), vehicle: other 116 % of control | dose: 3.13 mg/kg/injection, schedule: Q01DX009 (ip), vehicle: other 106 % of control | dose: 6.25 mg/kg/injection, schedule: Q01DX009 (ip), vehicle: other 119 % of control | dose: 12.5 mg/kg/injection, schedule: Q01DX009 (ip), vehicle: other 113 % of control | dose: 25.0 mg/kg/injection, schedule: Q01DX009 (ip), vehicle: other 113 % of control and 87 % of control | dose: 50.0 mg/kg/injection, schedule: Q01DX009 (ip), vehicle: other 91 % of control | dose: 100.0 mg/kg/injection, schedule: Q01DX009 (ip), vehicle: other 91 % of control | dose: 200.0 mg/kg/injection, schedule: Q01DX009 (ip), vehicle: other 89 % of control | dose: 400.0 mg/kg/injection, schedule: Q01DX009 (ip), vehicle: other 92 % of control
